Reference: publication PMC10874388, “Cyclic peptides discriminate BCL-2 and its clinical mutants from BCL-XL by engaging a single-residue discrepancy” (Nature Communications, 2024)
“And” between values parts separate entries of the source, which are not always exact repeats. Equal entries are not always repeated.

What was measured:
[1] = system: MGC-803 cells; test: Cell viability assay (CellTiter-Glo), MGC-803; format: cell-based; details: for inhibition rate: fraction; for inhibition rate / raw viability reading: replicates
Protocol: (§1) The cell lines Jurkat (TIB-152), El4 (TIB-39), Daudi (ccl-213), RS4:11 (crl-1873), A549 (ccl-185), HepG2 (hb-8065) and PANC-1 (crl-1469) were purchased from ATCC (American Type Culture Collection), and MGC-803 (C6582) was purchased from Beyotime (https://www.beyotime.com/product/C6582.htm). […] Daudi and RS4:11 cells were cultured in RPMI-1640 medium (HyClone, SH30809.01) and 10% FBS (Gibco, 10099-141), whereas HepG2, MGC-803 and PANC-1 cells were cultured in MDEM (HyClone, SH30243.01). Cells were maintained at 37 °C under a humidified, 5% (v/v) CO2-containing atmosphere.
(§2) Cell viability was measured using CellTiter-Glo® 2.0 Reagent (Promega, G9242). […] After different inhibitors were added into serum-free medium and cultured for 4 h (RS4:11 for 6 h), FBS were supplemented to 10% and then incubated totally for 24 h or 48 h. Finally, the IC50 values were calculated based on measurements using a microplate reader (Thermo, Varioskan LUX). Statistical analysis was performed using software GraphPad Prism 7.0.
Supplementary Figure 10 Functional mechanism of CPs. a. IC50 values of venetoclax against A549, MGC-803 and PANC-1 cells, measured after 48 h treatment by a CellTiter-Glo assay and calculated using Prism 7.0 by a nonlinear-fit method. Data are presented as mean ± s.d.; n= 6 biological replicates. b. […]
Glo assay. Each data point represents the mean ± s.d. for 6 biological replicates.
Supplementary Figure 11 IC50 values of different inhibitors against different cell lines. a-d. Viability of A549 (a), HepG2 (b), MGC-803 (c) and PANC-1 (d) cells treated with various concentrations of ABT-199 (venetoclax), and measured after 48 h by a CellTiter-Glo assay. e, f. Viability of Jurkat cells (e) and Daudi cells (f) treated with […]
after 48 h by a CellTiter-Glo assay. Each data point represents the mean ± s.d. for 6 biological replicates.
(1 picture or pasted object on this page, not shown here)

[2] = system: El4 cells; test: Cell viability assay (CellTiter-Glo), El4; format: cell-based; details: Mus musculus, 48 h treatment, NO = no inhibition detected
Protocol: as §1, §2

[3] = system: A549 cells overexpressing BCL-2 WT; test: Cell viability assay, A549 stably overexpressing BCL-2 WT; format: cell-based; details: for luminescence reading (raw, replicate wells) / luminescence reading, everage / inhibition rate: BCL2-WT A549; for luminescence reading, everage: mean of 6 wells
Protocol: as §2
Lentivirus packaging vectors pMDLg/pRRE, pRSV-Rev, and pVSV-G were obtained from Prof. Han Jiahuai’s lab (Xiamen University). Lentiviruses were produced using 3rd-generation lentivirus packaging plasmids transiently transfected into HEK293T cells with the constructs of interest using 0.25 M CaCl2. Media was changed after 16 h, and supernatants containing infectious virus particles were harvested 24 h later. A second viral harvest was made following a further 24 h incubation with fresh media. Virus containing supernatant was filtered through a […], and stored at 4 °C or −80 °C until being used. Typically, A549 cells were seeded into 10 cm cell culture dishes at 4 ~ 8 × 10^5 cells/cm^2. An equivalent volume of virus containing culture medium was added along with polybrene (Sigma) to a final concentration of 10 µg/mL. Cells were incubated at 37 °C for 20 h, before they were washed and resuspended in fresh culture media. The expression level of BCL-2 was measured by qPCR and western blot methods.

[4] = system: BCL-2 G101V; parameters: method as in PMID 31160589; details: SPR assays; cited from earlier work

Structure (SMILES): CC1(C)CCC(CN2CCN(c3ccc(C(=O)NS(=O)(=O)c4ccc(NCC5CCOCC5)c([N+](=O)[O-])c4)c(Oc4cnc5[nH]ccc5c4)c3)CC2)=C(c2ccc(Cl)cc2)C1 [venetoclax]
- average (raw viability reading) ([1]; ABT199 0.3125 uM): 557867
- inhibition rate ([1]; ABT199 0.3125 uM): 0.2027 and 0.1767 and 0.1757 and 0.1522 and 0.1169 and 0.1408
- raw viability reading ([1]; ABT199 0.3125 uM): 548000 and 563600 and 587100 and 571200 and 530000 and 547300
- average (raw viability reading) ([1]; ABT199 0.625 uM): 500400
- inhibition rate ([1]; ABT199 0.625 uM): 0.2793 and 0.2709 and 0.2616 and 0.2533 and 0.2176 and 0.2009
- raw viability reading ([1]; ABT199 0.625 uM): 490900 and 496400 and 520100 and 531200 and 479100 and 484700
- average (raw viability reading) ([1]; ABT199 1.25 uM): 506350
- inhibition rate ([1]; ABT199 1.25 uM): 0.2765 and 0.2507 and 0.2473 and 0.2351 and 0.2002 and 0.2202
- raw viability reading ([1]; ABT199 1.25 uM): 500400 and 508500 and 531700 and 518400 and 481000 and 498100
- average (raw viability reading) ([1]; ABT199 2.5 uM): 356233
- inhibition rate ([1]; ABT199 2.5 uM): 0.4666 and 0.4612 and 0.464 and 0.4702 and 0.4562
- raw viability reading ([1]; ABT199 2.5 uM): 356300 and 352200 and 361500 and 354600 and 358200
- average (raw viability reading) ([1]; ABT199 5 uM): 295000
- inhibition rate ([1]; ABT199 5 uM): 0.6033 and 0.5602 and 0.5626 and 0.5469 and 0.5313 and 0.5332
- raw viability reading ([1]; ABT199 5 uM): 290800 and 301200 and 311600 and 310300 and 263700 and 292400
- average (raw viability reading) ([1]; ABT199 10 uM): 171300
- inhibition rate ([1]; ABT199 10 uM): 0.7623 and 0.7504 and 0.748 and 0.7419 and 0.7262 and 0.725
- raw viability reading ([1]; ABT199 10 uM): 167500 and 171600 and 182000 and 182800 and 158000 and 165900
- average (raw viability reading) ([1]; ABT199 20 uM): 77771.7
- inhibition rate ([1]; ABT199 20 uM): 0.8931 and 0.8865 and 0.8872 and 0.8828 and 0.8769 and 0.8715
- raw viability reading ([1]; ABT199 20 uM): 75000 and 77910 and 81820 and 85400 and 71050 and 75450
- IC50 [2]: 1700 ± 200 nM
- luminescence reading (raw, replicate wells) ([3]; ABT-199 0.390625 uM): 644100 and 629100 and 637900 and 643500 and 647000 and 655800
- luminescence reading, everage ([3]; ABT-199 0.390625 uM): 642900
- inhibition rate ([3]; ABT-199 0.390625 uM, replicate wells): -3.29% and -4.73% and -5.65% and -6% and -8% and -5.55%
- luminescence reading (raw, replicate wells) ([3]; ABT-199 0.78125 uM): 567400 and 598600 and 586100 and 654900 and 608300 and 579900
- luminescence reading, everage ([3]; ABT-199 0.78125 uM): 599200
- inhibition rate ([3]; ABT-199 0.78125 uM, replicate wells): 1.72% and 3.77% and -7.52% and 0.129% and 5% and 1.62%
- luminescence reading (raw, replicate wells) ([3]; ABT-199 1.5625 uM): 298800 and 328200 and 290000 and 313400 and 302200 and 296200
- luminescence reading, everage ([3]; ABT-199 1.5625 uM): 304800
- inhibition rate ([3]; ABT-199 1.5625 uM, replicate wells): 52% and 49% and 50% and 51%
- luminescence reading (raw, replicate wells) ([3]; ABT-199 3.125 uM): 264200 and 271400 and 265500 and 281900 and 276200 and 275000
- luminescence reading, everage ([3]; ABT-199 3.125 uM): 272367
- inhibition rate ([3]; ABT-199 3.125 uM, replicate wells): 56% and 54%
- luminescence reading (raw, replicate wells) ([3]; ABT-199 6.25 uM): 239200 and 242900 and 250800 and 260000 and 262000 and 251900
- luminescence reading, everage ([3]; ABT-199 6.25 uM): 251133
- inhibition rate ([3]; ABT-199 6.25 uM, replicate wells): 59% and 57%
- luminescence reading (raw, replicate wells) ([3]; ABT-199 12.5 uM): 192300 and 201400 and 189800 and 189400 and 190500 and 194300
- luminescence reading, everage ([3]; ABT-199 12.5 uM): 192950
- inhibition rate ([3]; ABT-199 12.5 uM, replicate wells): 69% and 68%
- luminescence reading (raw, replicate wells) ([3]; ABT-199 25 uM): 124100 and 129200 and 123800 and 128900 and 121100 and 127700
- luminescence reading, everage ([3]; ABT-199 25 uM): 125800
- inhibition rate ([3]; ABT-199 25 uM, replicate wells): 80%
- luminescence reading (raw, replicate wells) ([3]; ABT-199 50 uM): 61440 and 62870 and 63340 and 62270 and 63280 and 66020
- luminescence reading, everage ([3]; ABT-199 50 uM): 63203
- inhibition rate ([3]; ABT-199 50 uM, replicate wells): 89%
- luminescence reading (raw, replicate wells) ([3]; ABT-199 100 uM): 19300 and 21810 and 21770 and 21930 and 21040 and 20180
- luminescence reading, everage ([3]; ABT-199 100 uM): 21005
- inhibition rate ([3]; ABT-199 100 uM, replicate wells): 97%
- luminescence reading (raw, replicate wells) ([3]; ABT-199 200 uM): 4077 and 3911 and 4092 and 4449 and 4173 and 4465
- luminescence reading, everage ([3]; ABT-199 200 uM): 4195
- inhibition at 1.5625 µM ([3]; Homo sapiens, A549, BCL2-WT A549, ABT-199 1.5625 uM, replicate wells, read-out: inhibition rate): 46%
- inhibition at 3.125 µM ([3]; Homo sapiens, A549, BCL2-WT A549, ABT-199 3.125 uM, replicate wells, read-out: inhibition rate): 55%
- inhibition at 6.25 µM ([3]; Homo sapiens, A549, BCL2-WT A549, ABT-199 6.25 uM, replicate wells, read-out: inhibition rate): 60%
- inhibition at 12.5 µM ([3]; Homo sapiens, A549, BCL2-WT A549, ABT-199 12.5 uM, replicate wells, read-out: inhibition rate): 67%
- inhibition at 25 µM ([3]; Homo sapiens, A549, BCL2-WT A549, ABT-199 25 uM, replicate wells, read-out: inhibition rate): 79%
- inhibition at 50 µM ([3]; Homo sapiens, A549, BCL2-WT A549, ABT-199 50 uM, replicate wells, read-out: inhibition rate): 90%
- inhibition at 100 µM ([3]; Homo sapiens, A549, BCL2-WT A549, ABT-199 100 uM, replicate wells, read-out: inhibition rate): 96%
- inhibition at 200 µM ([3]; Homo sapiens, A549, BCL2-WT A549, ABT-199 200 uM, replicate wells, read-out: inhibition rate): 99%
- IC50 ([3]; Homo sapiens, A549, 48 h, CellTiter-Glo, n = 6): 2500 ± 200 nM
- Reduction of binding affinity of BCL-2 to venetoclax by G101V [4]: ~ 180 fold
